Key:
Assay in all cases: Enzyme Assay
PIK3CA (human) = PIK3CA (human) (UniProt P42336)
PIK3CB (Human) = PIK3CB (Human) (UniProt P42338)
PIK3CD (Human) = PIK3CD (Human) (UniProt O00329)
PIK3CD (Human), sequence (O00329 whole entry, looked up): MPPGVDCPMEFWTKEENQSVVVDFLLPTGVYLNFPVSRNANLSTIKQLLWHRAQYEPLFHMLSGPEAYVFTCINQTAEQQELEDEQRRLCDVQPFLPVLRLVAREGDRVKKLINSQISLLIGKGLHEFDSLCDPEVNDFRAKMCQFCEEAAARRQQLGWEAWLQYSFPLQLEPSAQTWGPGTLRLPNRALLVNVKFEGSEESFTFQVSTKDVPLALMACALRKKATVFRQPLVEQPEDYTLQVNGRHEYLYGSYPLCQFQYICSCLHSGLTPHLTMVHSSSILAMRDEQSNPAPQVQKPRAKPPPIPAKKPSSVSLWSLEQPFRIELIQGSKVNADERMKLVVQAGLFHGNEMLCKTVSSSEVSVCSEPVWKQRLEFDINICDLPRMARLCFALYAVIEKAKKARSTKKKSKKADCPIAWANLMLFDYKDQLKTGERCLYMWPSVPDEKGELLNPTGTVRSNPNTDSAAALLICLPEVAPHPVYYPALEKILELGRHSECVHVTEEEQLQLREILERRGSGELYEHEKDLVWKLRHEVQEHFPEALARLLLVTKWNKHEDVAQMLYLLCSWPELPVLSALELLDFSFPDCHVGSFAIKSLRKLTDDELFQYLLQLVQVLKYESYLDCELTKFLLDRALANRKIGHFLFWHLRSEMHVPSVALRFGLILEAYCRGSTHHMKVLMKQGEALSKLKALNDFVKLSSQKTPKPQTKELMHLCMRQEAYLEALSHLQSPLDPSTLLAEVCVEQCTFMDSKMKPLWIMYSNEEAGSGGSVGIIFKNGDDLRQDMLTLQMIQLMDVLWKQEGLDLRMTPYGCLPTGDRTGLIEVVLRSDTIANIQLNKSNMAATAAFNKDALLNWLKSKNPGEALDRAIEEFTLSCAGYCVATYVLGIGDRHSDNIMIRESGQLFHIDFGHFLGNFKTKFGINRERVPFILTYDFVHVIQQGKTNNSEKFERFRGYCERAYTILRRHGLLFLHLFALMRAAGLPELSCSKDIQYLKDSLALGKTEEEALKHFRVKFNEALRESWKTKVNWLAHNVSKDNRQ

PIK3CB (Human), sequence (P42338 whole entry, looked up): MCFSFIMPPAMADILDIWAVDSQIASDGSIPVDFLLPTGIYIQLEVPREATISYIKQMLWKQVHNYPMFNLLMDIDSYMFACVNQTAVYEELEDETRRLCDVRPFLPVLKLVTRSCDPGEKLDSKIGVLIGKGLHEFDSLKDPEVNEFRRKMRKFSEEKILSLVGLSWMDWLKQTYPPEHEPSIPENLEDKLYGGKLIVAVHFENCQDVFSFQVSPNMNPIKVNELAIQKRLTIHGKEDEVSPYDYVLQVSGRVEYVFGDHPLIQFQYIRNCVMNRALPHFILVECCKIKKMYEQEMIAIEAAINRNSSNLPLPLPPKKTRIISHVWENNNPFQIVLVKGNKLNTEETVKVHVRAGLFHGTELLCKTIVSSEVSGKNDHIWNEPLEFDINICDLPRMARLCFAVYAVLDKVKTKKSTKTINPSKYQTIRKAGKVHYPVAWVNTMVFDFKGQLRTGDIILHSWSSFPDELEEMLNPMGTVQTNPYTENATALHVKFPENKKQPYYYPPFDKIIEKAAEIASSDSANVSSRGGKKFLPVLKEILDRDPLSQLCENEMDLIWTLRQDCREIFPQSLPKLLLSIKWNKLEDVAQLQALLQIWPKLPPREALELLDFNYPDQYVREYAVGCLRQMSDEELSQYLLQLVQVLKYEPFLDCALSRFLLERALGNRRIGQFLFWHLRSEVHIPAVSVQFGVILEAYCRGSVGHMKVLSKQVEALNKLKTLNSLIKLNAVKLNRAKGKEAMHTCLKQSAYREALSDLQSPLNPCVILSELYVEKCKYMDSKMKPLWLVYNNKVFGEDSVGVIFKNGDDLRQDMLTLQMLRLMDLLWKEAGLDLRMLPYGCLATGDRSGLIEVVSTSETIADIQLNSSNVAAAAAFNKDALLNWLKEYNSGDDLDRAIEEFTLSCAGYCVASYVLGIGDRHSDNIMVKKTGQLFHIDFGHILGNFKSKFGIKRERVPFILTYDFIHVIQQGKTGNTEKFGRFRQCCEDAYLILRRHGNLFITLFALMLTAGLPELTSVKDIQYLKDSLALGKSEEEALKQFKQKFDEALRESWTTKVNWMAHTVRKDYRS
PIK3CA (human), sequence (P42336 whole entry, looked up): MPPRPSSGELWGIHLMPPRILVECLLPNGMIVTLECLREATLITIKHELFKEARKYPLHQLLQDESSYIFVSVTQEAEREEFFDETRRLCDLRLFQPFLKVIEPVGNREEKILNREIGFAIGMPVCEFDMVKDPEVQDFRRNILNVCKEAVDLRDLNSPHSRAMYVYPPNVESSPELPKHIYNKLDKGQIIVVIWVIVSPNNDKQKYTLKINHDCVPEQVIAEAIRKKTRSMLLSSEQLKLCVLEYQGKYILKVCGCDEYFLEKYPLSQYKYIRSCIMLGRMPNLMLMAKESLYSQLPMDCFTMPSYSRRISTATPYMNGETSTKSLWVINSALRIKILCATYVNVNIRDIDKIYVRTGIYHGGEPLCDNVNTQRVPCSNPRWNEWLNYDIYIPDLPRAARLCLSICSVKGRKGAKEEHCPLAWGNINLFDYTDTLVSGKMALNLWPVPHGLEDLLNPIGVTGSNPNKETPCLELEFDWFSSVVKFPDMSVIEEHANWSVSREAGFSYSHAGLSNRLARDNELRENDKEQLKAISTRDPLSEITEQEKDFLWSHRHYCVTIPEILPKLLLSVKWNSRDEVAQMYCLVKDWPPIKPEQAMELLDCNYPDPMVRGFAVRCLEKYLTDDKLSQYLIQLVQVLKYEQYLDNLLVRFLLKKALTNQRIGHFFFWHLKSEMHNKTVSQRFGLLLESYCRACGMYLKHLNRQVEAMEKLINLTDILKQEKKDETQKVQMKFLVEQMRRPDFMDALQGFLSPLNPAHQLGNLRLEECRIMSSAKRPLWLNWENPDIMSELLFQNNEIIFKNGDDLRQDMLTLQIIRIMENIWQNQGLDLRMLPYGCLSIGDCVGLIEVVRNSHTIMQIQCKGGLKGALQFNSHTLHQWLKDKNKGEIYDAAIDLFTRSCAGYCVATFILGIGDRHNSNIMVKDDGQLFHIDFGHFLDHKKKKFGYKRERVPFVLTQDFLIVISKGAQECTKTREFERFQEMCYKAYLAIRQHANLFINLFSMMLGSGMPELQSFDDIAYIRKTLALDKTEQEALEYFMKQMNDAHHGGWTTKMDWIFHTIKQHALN

Row | IC50 (PIK3CA (human)) [nM] | IC50 (PIK3CB (Human)) [nM] | IC50 (PIK3CD (Human)) [nM] | Structure (SMILES)
1 |  | 100 to 1000 |  | Cc1cccc2cc(Cn3nc(-c4cc(O)cc(F)c4)c4c(N)ncnc43)n(-c3ccccc3O)c(=O)c12
2 | > 10000 | > 10000 | 100 to 1000 | Cc1cccc2cc(Cn3nc(Cl)c4c(N)ncnc43)n(-c3ccccc3F)c(=O)c12
3 | > 10000 | > 10000 | 100 to 1000 | COc1cc(-c2nn(Cc3cc4cccc(C)c4c(=O)n3-c3ccccc3C)c3ncnc(N)c23)ccc1Cl
4 | > 10000 | > 10000 | 100 to 1000 | COc1cc(F)cc(-c2nn(Cc3cc4cccc(C)c4c(=O)n3-c3ccccc3C)c3ncnc(N)c23)c1
5 |  | > 10000 | < 100 | Cc1ccccc1-n1c(Cn2nc(CC#N)c3c(N)ncnc32)cc2cccc(C)c2c1=O
6 | > 10000 | > 10000 |  | Cc1cccc2cc(Cn3nc(C#C[C@@H](C)O)c4c(N)ncnc43)n(-c3ccccc3O)c(=O)c12
7 | 100 to 1000 | 100 to 1000 | < 100 | Cc1cccc2cc(Cn3nc(-c4ccc5sc(N)nc5c4)c4c(N)ncnc43)n(-c3ccccc3)c(=O)c12
8 | > 10000 | > 10000 |  | Cc1cccc2cc(Cn3nc(-c4cccc(O)c4)c4c(N)ncnc43)n(-c3ccccc3)c(=O)c12
9 | > 10000 | > 10000 | 100 to 1000 | C=Cc1nn(Cc2cc3cccc(C)c3c(=O)n2-c2ccccc2F)c2ncnc(N)c12
10 | > 10000 | > 10000 | 100 to 1000 | Cc1cccnc1-n1c(Cn2nc(C#C[C@@H](C)O)c3c(N)ncnc32)cc2cccc(C)c2c1=O
11 |  | 100 to 1000 |  | Cc1cccc2cc(Cn3nc(-c4cc(O)cc(F)c4)c4c(N)ncnc43)n(-c3ccccc3Cl)c(=O)c12
12 | > 10000 | > 10000 | 100 to 1000 | Cc1cccc2cc(Cn3nc(Br)c4c(N)ncnc43)n(-c3ccccc3F)c(=O)c12
13 | > 10000 | > 10000 |  | Cc1cccc2cc(Cn3nc(-c4cccc(F)c4)c4c(N)ncnc43)n(-c3ccccc3F)c(=O)c12
14 | > 10000 | > 10000 |  | Cc1cccc2cc(Cn3nc(I)c4c(N)ncnc43)n(C(C)C)c(=O)c12
15 | > 10000 | 100 to 1000 |  | Cc1cccc2cc(Cn3nc(-c4cccc(O)c4)c4c(N)ncnc43)n(-c3ccccc3C(C)C)c(=O)c12
16 | > 10000 | > 10000 |  | CC(=O)Nc1nc2ccc(-c3nn(Cc4cc5cccc(C)c5c(=O)n4-c4ccccc4)c4ncnc(N)c34)cc2[nH]1
17 | > 10000 | > 10000 |  | Cc1cccc2cc(Cn3nc(-c4cnn(C)c4)c4c(N)ncnc43)n(-c3ccccc3F)c(=O)c12

Row | IC50 (PIK3CA (human)) [nM] | IC50 (PIK3CB (Human)) [nM] | IC50 (PIK3CD (Human)) [nM] | Structure (SMILES)
18 | > 10000 | > 10000 |  | Cc1ccccc1-n1c(Cn2nc(C#C[C@@H](C)O)c3c(N)ncnc32)cc2cccc(C)c2c1=O
19 | > 10000 | > 10000 |  | CCc1ccccc1-n1c(Cn2nc(-c3cccc(O)c3)c3c(N)ncnc32)cc2cccc(C)c2c1=O
20 | > 10000 | > 10000 |  | Cc1cccc2cc(Cn3nc(I)c4c(N)ncnc43)n(-c3ccccc3O)c(=O)c12
21 | > 10000 | > 10000 |  | Cc1ccccc1-n1c(Cn2nc(C#N)c3c(N)ncnc32)cc2cccc(C)c2c1=O
22 |  | 100 to 1000 |  | CCc1ccccc1-n1c(Cn2nc(-c3cc(O)cc(F)c3)c3c(N)ncnc32)cc2cccc(C)c2c1=O
23 | > 10000 | > 10000 |  | Cc1cccc2cc(Cn3nc(C#N)c4c(N)ncnc43)n(-c3ccccc3F)c(=O)c12
24 |  | < 100 | < 100 | CC(=O)Nc1nc2cc(-c3nn(Cc4cc5cccc(C)c5c(=O)n4-c4ccccc4)c4ncnc(N)c34)ccc2o1
25 | > 10000 | > 10000 |  | Cc1ccccc1-n1c(Cn2nc(CN3CCOCC3)c3c(N)ncnc32)cc2cccc(C)c2c1=O
26 | > 10000 | 100 to 1000 |  | Cc1cccc2cc(Cn3nc(-c4cccc(O)c4)c4c(N)ncnc43)n(C(C)C)c(=O)c12
27 | > 10000 | > 10000 |  | Cc1cccc2cc(Cn3nc(-c4ccc(Cl)c(O)c4)c4c(N)ncnc43)n(-c3ccccc3F)c(=O)c12
28 |  | > 10000 | < 100 | Cc1ccccc1-n1c(Cn2nc(CF)c3c(N)ncnc32)cc2cccc(C)c2c1=O
29 |  | 100 to 1000 |  | Cc1cccc2cc(Cn3nc(-c4cn[nH]c4)c4c(N)ncnc43)n(-c3ccccc3C(C)C)c(=O)c12
30 |  | > 10000 | < 100 | Cc1cccc2cc(Cn3nc(CF)c4c(N)ncnc43)n(-c3ccccc3)c(=O)c12
31 | 100 to 1000 | 100 to 1000 |  | Cc1cccc2cc(Cn3nc(-c4cc(O)cc(F)c4)c4c(N)ncnc43)n(-c3ccccc3C(C)C)c(=O)c12
32 | > 10000 |  | 100 to 1000 | COc1ccc(-c2nn(Cc3cc4cccc(C)c4c(=O)n3-c3ccccc3C)c3ncnc(N)c23)cc1
33 | > 10000 |  | 100 to 1000 | Cc1ccccc1-n1c(Cn2nc(I)c3c(N)ncnc32)cc2ccccc2c1=O
34 | > 10000 | > 10000 |  | Cc1cccc2cc(Cn3nc(C(C)C)c4c(N)ncnc43)n(-c3ccccc3)c(=O)c12

Second part, the compound before the results:

Row | Structure (SMILES) | IC50 (PIK3CA (human)) [nM] | IC50 (PIK3CB (Human)) [nM] | IC50 (PIK3CD (Human)) [nM]
35 | Cc1ccccc1-n1c(Cn2nc(-c3cn[nH]c3)c3c(N)ncnc32)cc2ccccc2c1=O | > 10000 | > 10000 | 100 to 1000
36 | Cc1cccc2cc([C@@H](C)Nc3ncnc4[nH]cnc34)n(C3CCC3)c(=O)c12 | > 10000 | > 10000 | > 10000
37 | Cc1cccc2cc([C@H](C)Nc3ncnc4[nH]cc(C(N)=O)c34)n(-c3ccccc3)c(=O)c12 | 100 to 1000 | < 100 | < 100
38 | Cc1ccccc1-n1c(Cn2nc(-c3ccc4sc(N)nc4c3)c3c(N)ncnc32)cc2cccc(C)c2c1=O | 100 to 1000 | 100 to 1000 | < 100
39 | Cc1cccc2cc([C@H](C)Nc3ncnc4[nH]cc(F)c34)n(-c3ccccc3)c(=O)c12 |  | < 100 | < 100
40 | Cc1cccc2cc([C@H](C)Nc3ncnc4[nH]cc(C(N)=O)c34)n(C3CC3)c(=O)c12 | 100 to 1000 | < 100 | < 100
41 | Cc1ccccc1-n1c(Cn2nc(-c3ccc4ncnc(N)c4c3)c3c(N)ncnc32)cc2cccc(C)c2c1=O |  | > 10000 | 
42 | Cc1cccc2cc([C@H](C)Nc3ncnc4[nH]cc(C#N)c34)n(-c3ccccc3)c(=O)c12 | 100 to 1000 | < 100 | < 100
43 | Cc1cccc2cc([C@H](C)Nc3ncnc4[nH]cc(Br)c34)n(-c3ccccc3)c(=O)c12 | 100 to 1000 | < 100 | < 100
44 | Cc1ccccc1-n1c(CN(C)c2ncnc3[nH]cnc23)cc2cccc(C)c2c1=O | > 10000 | > 10000 | 
45 | Cc1cccc2cc([C@H](C)Nc3ncnc4[nH]c(Cl)nc34)n(-c3ccccc3)c(=O)c12 | > 10000 | > 10000 | > 10000
46 | CC(=O)Nc1nc2cc(-c3nn(Cc4cc5cccc(C)c5c(=O)n4-c4ccccc4C)c4ncnc(N)c34)ccc2o1 |  | 100 to 1000 | < 100
47 | Cc1cccc2cc(Cn3nc(C#C[C@@H](C)O)c4c(N)ncnc43)n(C3CCCCC3)c(=O)c12 | > 10000 | > 10000 | 
48 | Cc1cccc2cc(Cn3nc(-c4ccc(F)c(O)c4)c4c(N)ncnc43)n(C3CCCC3)c(=O)c12 | > 10000 | > 10000 | 
49 | Cc1cccc2cc(Cn3nc(I)c4c(N)ncnc43)n(C3CCC3)c(=O)c12 | > 10000 | > 10000 | 
50 | CCn1c(Cn2nc(-c3ccc4nc(NC(C)=O)sc4c3)c3c(N)ncnc32)cc2cccc(C)c2c1=O |  | 100 to 1000 | 
51 | CC(=O)Nc1nc2ccc(-c3nn(Cc4cc5cccc(C)c5c(=O)n4C)c4ncnc(N)c34)cc2s1 |  | 100 to 1000 | 
52 | Cc1cccc2cc([C@H](C)Nc3cc(N)nc(N)n3)n(C3CC3)c(=O)c12 | > 10000 | > 10000 | 
53 | Cc1cccc2cc([C@H](C)Nc3ncnc4[nH]nc(C(N)=O)c34)n(-c3ccccc3)c(=O)c12 |  | < 100 | < 100

Row | Structure (SMILES) | IC50 (PIK3CA (human)) [nM] | IC50 (PIK3CB (Human)) [nM] | IC50 (PIK3CD (Human)) [nM]
54 | Cc1ccccc1-n1c(Cn2nc(-c3ccc4nc(N)ncc4c3)c3c(N)ncnc32)cc2cccc(C)c2c1=O |  | 100 to 1000 | 
55 | Cc1cccc2cc([C@H](C)Nc3ncc(C(F)(F)F)c(N)n3)n(-c3ccccc3)c(=O)c12 | > 10000 | > 10000 | 
56 | Cc1cccc2cc([C@H](C)Nc3ncnc4[nH]nc(C(N)=O)c34)n(C3CC3)c(=O)c12 |  | < 100 | < 100
57 | Cc1cccnc1-n1c(Cn2nc(-c3ccc(F)c(O)c3)c3c(N)ncnc32)cc2cccc(C)c2c1=O | > 10000 | > 10000 | 
58 | Cc1ccccc1-n1c(Cn2nc(-c3ccc(F)c(O)c3)c3c(N)ncnc32)cc2ccccc2c1=O | > 10000 | > 10000 | 
59 | Cc1cccc2cc(Cn3nc(-c4cccc(O)c4)c4c(N)ncnc43)n(C3CC3)c(=O)c12 | 100 to 1000 | 100 to 1000 | 
60 | Cc1cccc2cc([C@H](C)Nc3ncnc4[nH]cnc34)n(C3CC3)c(=O)c12 |  | < 100 | < 100
61 | Cc1cccc2cc([C@H](C)Nc3ncnc4[nH]ccc34)n(C3CC3)c(=O)c12 |  | < 100 | < 100
62 | Cc1ccccc1-n1c(Cn2nc(-c3cccc(O)c3)c3c(N)ncnc32)cc2cccc(F)c2c1=O | > 10000 | > 10000 | 
63 | CCN(Cc1cc2cccc(C)c2c(=O)n1-c1ccccc1C)c1ncnc2[nH]cnc12 | > 10000 | > 10000 | 
64 | Cc1cccc2cc([C@H](C)Nc3ncnc4[nH]nc(C#N)c34)n(-c3ccccc3)c(=O)c12 |  | < 100 | < 100
65 | Cc1ccccc1-n1c(Cn2nc(-c3ccc(F)c(O)c3)c3c(N)ncnc32)cc2cccc(F)c2c1=O | > 10000 | > 10000 | 
66 | Cc1cccc2cc(C(C)Nc3ncnc4[nH]cnc34)n(-c3ccc(F)cc3)c(=O)c12 (configuration not stated) |  | 100 to 1000 | < 100
67 | Cc1ccccc1-n1c(Cn2nc(CCC(=O)N3CCOCC3)c3c(N)ncnc32)cc2cccc(C)c2c1=O | > 10000 | > 10000 | 
68 | Cc1cccc2cc(C(C)Nc3ncnc4[nH]cnc34)n(C3CC3)c(=O)c12 (configuration not stated) |  | 100 to 1000 | < 100
69 | CCC(Nc1ncnc2[nH]cnc12)c1cc2cccc(C)c2c(=O)n1-c1c(F)cccc1F (configuration not stated) |  | > 10000 | 
70 | CC(=O)Nc1nc2ccc(-c3nn(Cc4cc5cccc(C)c5c(=O)n4C4CCC4)c4ncnc(N)c34)cc2s1 |  | 100 to 1000 | 
71 | Cc1ccccc1-n1c(Cn2nc(-c3ccc(Cl)c(O)c3)c3c(N)ncnc32)cc2ccccc2c1=O | > 10000 | > 10000 | 

From the Kinase Knowledgebase extract (Sharma et al. 2016)
